Data on 2 molecules can be found in PMC8073005, “Antifungal Activity and DNA Topoisomerase Inhibition of Hydrolysable Tannins from Punica granatum L” (International Journal of Molecular Sciences, 2021).

In brackets after ≈: the same amount, converted by molar mass. Several values for one entry are separate records, joined by “and”; a condition that tells them apart may be missing. Identical values can stand only once.

Common to all, as to type: cell-based
The subject of assay [1] is Alternaria alternata AL19. The assay is described as follows: MIC, micro-spectrophotometric growth assay (phytopathogens). To be noted: for MIC: Alternaria alternata AL19, PDB, 24 °C, dark, imazalil at label dose, read-out: Minimum inhibitory concentration (MIC).
A further assay relates to Botrytis cinerea B2. Described as above. The conditions noted are these: for MIC: Botrytis cinerea B2, PDB, 24 °C, dark, imazalil at label dose, read-out: Minimum inhibitory concentration (MIC).
Another assay concerns Coniella granati M0_C2. Described as above. To be noted: for growth reduction: C. granati, 48 h of incubation; for MIC: Coniella granati M0_C2, PDB, 24 °C, dark, imazalil at label dose, read-out: Minimum inhibitory concentration (MIC).
Assay [2] deals with Candida albicans SC 5314. Nature of the assay: MIC, broth microdilution (human pathogens). The conditions noted are these: SC5314; Candida albicans SC 5314; SDB, 30 °C, 48 h; read-out: Minimum inhibitory concentration (MIC).
A further assay concerns Candida albicans 41. The assay is described as follows: MIC, broth microdilution (human pathogens). The conditions noted are these: Candida albicans 41; SDB, 30 °C, 48 h; read-out: Minimum inhibitory concentration (MIC).
The test system of assay [3] is Aspergillus brasiliensis ATCC 16404. The assay is described as follows: MIC, broth microdilution (human pathogens). The conditions noted are these: ATCC16404; Aspergillus brasiliensis ATCC 16404; SDB, 30 °C, 48 h; read-out: Minimum inhibitory concentration (MIC). (Broth dilution looks for growth in wells or tubes with falling amounts of substance.)
Assay [4] has as its system Cryptococcus neoformans B 3501. The assay is described as follows: MIC, broth microdilution (human pathogens). The conditions noted are these: B3501; Cryptococcus neoformans B 3501; SDB, 30 °C, 48 h; read-out: Minimum inhibitory concentration (MIC).
The subject of another assay is Cryptococcus 67. Nature of the assay: MIC, broth microdilution (human pathogens). To be noted: Cryptococcus 67; SDB, 30 °C, 48 h; read-out: Minimum inhibitory concentration (MIC).
Assay [5] concerns other genera tested (other fungi strains). The assay is described as follows: Agar Disk Diffusion Assay, other genera. As for the experimental part: The antifungal activity of pomegranate compounds was evaluated against 19 clinically isolated fungal strains, including nine belonging to Candida albicans species, two belonging to Aspergillus genus, one belonging to Cryptococcus genus, and one Saccharomyces cerevisiae. The C. albicans strains were isolated on CHROMID agar, Aspergillus and Cryptococcus genus were isolated on SDA-CAF and one Saccharomyces cerevisiae on SDA. All the isolates were confirmed by matrix-assisted laser desorption ionization (MALDI) time-of-flight mass spectrometry (TOF/MS). Strains from the American Type Culture Collection (ATCC) were included. All strains were maintained in SDB with 20% (w/v) glycerol at −80 °C until use and sub-cultured in SDA before each test.
The preliminary determination of the antifungal activity of the target compounds (punicalagin, punicalin, ellagic acid, and gallic acid) from pomegranate was carried out by means of the agar disk diffusion assay, according to the standard procedure of the Clinical and Laboratory Standards Institute, with slight modifications. Plates containing SDA were uniformly spread with 100 μL of 10^3 conidia/mL of each strain suspension. […] Disks containing fluconazole (25 μg), amphotericin B (25 μg) and DMSO (20 μL) were used as the positive and the negative control, respectively. The antifungal activity of pomegranate compounds was evaluated by measuring the diameter of the clear inhibition zone formed right around the disks after 48 h incubation at 30 ± 1 °C. The experiment was carried out in triplicate.
(In general: Agar diffusion results depend on both activity and mobility in agar.)

The subject of assay [6] is Candida albicans SC 5314. The assay is described as follows: Time-kill curves. To be noted: C. albicans SC 5314; compound at its MIC value; 0–96 h.

For the molecule `O=C1OC[C@H]2OC(O)[C@H](O)[C@@H](O)[C@@H]2OC(=O)c2cc(O)c(O)c(O)c2-c2c(O)c(O)c3oc(=O)c4c(c(O)c(O)c5oc(=O)c2c3c54)-c2c1cc(O)c(O)c2O` (mixture of isomers) [Punicalin, punicalin], the MIC in assay [1] was 255.6 µM and 256 µM; with Botrytis cinerea B2 it was 255.6 µM and 256 µM; in the assay on Coniella granati M0_C2, 255.6 µM and 256 µM; with Candida albicans SC 5314 [2], 127 µM; with Candida albicans 41, 127 µM; in [3], 1.9 µM. In addition, the results for the MIC (in [4]; in the assay with Cryptococcus 67) were 1.9 µM and 127 µM, respectively. Also, in the assay with Coniella granati M0_C2, the growth reduction result was “up to 92%”. The “share of other fungi strains with inhibition zone from 11 to 20 mm” value in assay [5] (100 µg) is on record as 63%.
Turning to `O=c1oc2c(O)c(O)cc3c(=O)oc4c(O)c(O)cc1c4c23` [Ellagic Acid, ellagic acid], the “antifungal activity (growth curve)” value in assay [1] (A. alternata, Figure S3) is “no or little antifungal activity”; with Botrytis cinerea B2 (B. cinerea, Figure S3), “no or little antifungal activity”. Besides, the MIC in assay [1] is 165.4 µM and 165 µM; in the assay on Botrytis cinerea B2 it was 165.4 µM and 165 µM; with Coniella granati M0_C2, 165.4 µM and 165 µM; with Candida albicans SC 5314 [2], 2.5 µM (≈ 0.755 µg/mL); in the assay on Candida albicans 41, 331 µM (≈ 100 µg/mL); in [3], 662 µM (≈ 200 µg/mL). Moreover, the MIC is 331 µM (≈ 100 µg/mL) in assay [4] and 662 µM (≈ 200 µg/mL) with Cryptococcus 67. Further, the growth reduction entry in the assay with Coniella granati M0_C2 is listed as “up to 60%”. For the same molecule, the “share of other strains with growth inhibition from 21 to 30 mm” value in assay [5] (62.5 µg) is recorded as 100%. Also, the “time-kill curve (susceptibility time-course)” value in the assay with Candida albicans SC 5314 [6] is “better antifungal activity against the reference C. albicans strain after 72 h of exposure”.
